pIC50: −log10 of the molar value.
Assays:
ROCK2 = ROCK2 (Homo sapiens, UniProt O75116); assay: ROCK2 kinase IC50, HTRF KinEASE-STK S2 kit; format: biochemical; details: 2 hours at room temperature
Experimental: (§1) The kinase IC50 was determined by a commercialized CISBIO kinase detection kit, HTRF KinEASE-STK S2 kit (62ST2PEC). ROCK2 (01-119) employed in the reaction was purchased from Carna Biosciences.
(§2) Before the assay, the following working solutions as needed were formulated with corresponding reagents according to the instruction of the kinase detection kit: 1×kinase buffer, 5×STK-S2 substrate working solution (1.5 μM) and 5×ATP working solution (1.5 μM), 5×ROCK2 kinase working solution, 4×Streptavidin-XL665 working solution, and 4×STK-Ab-Cryptate 2 detection solution. Then the assay was performed according to the following procedure.
(§3) A solution of a compound at a concentration of 10000 nM was prepared with the 1×kinase buffer containing 2.5% DMSO. Gradient dilution of the solution of the compound was performed with the kinase buffer containing DMSO, so as to obtain solutions of a test compound at 9 different concentrations. In addition to wells of test compounds, a positive well (containing all the reagents except the compound) and a negative well (containing all the reagents except the test compound and kinase) were set. Except for the control wells (positive and negative wells), a solution of a test compound (4 μL) was added to each of the reaction wells, and a solution of 2.5% DMSO was added to the control wells. Then the substrate (2 μM, i.e., 2 μL 5×STK-S2 substrate working solution) was added to each of the reaction wells. The 5×ROCK2 kinase working solution (2 μL, containing 1.4 ng ROCK2 kinase) was added to each of the reaction wells except for the negative well, the volume of which was made up with the 1×kinase buffer (2 μL). The 5×ATP working solution (2 μL) was added to each of the reaction wells, and the mixtures were incubated at room temperature for 2 hours. After the kinase reaction was complete, the 4×Streptavidin-XL665 working solution was added to each of the reaction wells, the solutions were mixed, followed by immediate addition of the 4×STK-Ab-Cryptate 2 detection solution (5 μL), and the mixtures were incubated at room temperature for 1 hour. The fluorescence signal was read on ENVISION (Perkinelmer) (excitation wavelength: 320 inn, and emission wavelength: 665 nm and 615 nm). The inhibitory rate in each well was calculated based on the fluorescence intensity value: ER (Emission Ratio)_(fluorescence intensity at 665 nm/fluorescence intensity at 615 nm); inhibitory rate=(ERpositive−ERtest compound)/(ERpositive−ERnegative)*100%. Curves were plotted and fitted to obtain the median inhibitory concentration (IC50) of each teat compound with the PRISM 5.0 software. According to a biological test method similar to the above, the IC50 values of the compounds on ROCK1 were also tested.

ROCK1 = ROCK1 (Homo sapiens (Human), UniProt Q13464); assay: ROCK1 kinase IC50, biological test method similar to ROCK2 assay; format: biochemical
Chain of ROCK1 (Q13464 whole entry, species assumed): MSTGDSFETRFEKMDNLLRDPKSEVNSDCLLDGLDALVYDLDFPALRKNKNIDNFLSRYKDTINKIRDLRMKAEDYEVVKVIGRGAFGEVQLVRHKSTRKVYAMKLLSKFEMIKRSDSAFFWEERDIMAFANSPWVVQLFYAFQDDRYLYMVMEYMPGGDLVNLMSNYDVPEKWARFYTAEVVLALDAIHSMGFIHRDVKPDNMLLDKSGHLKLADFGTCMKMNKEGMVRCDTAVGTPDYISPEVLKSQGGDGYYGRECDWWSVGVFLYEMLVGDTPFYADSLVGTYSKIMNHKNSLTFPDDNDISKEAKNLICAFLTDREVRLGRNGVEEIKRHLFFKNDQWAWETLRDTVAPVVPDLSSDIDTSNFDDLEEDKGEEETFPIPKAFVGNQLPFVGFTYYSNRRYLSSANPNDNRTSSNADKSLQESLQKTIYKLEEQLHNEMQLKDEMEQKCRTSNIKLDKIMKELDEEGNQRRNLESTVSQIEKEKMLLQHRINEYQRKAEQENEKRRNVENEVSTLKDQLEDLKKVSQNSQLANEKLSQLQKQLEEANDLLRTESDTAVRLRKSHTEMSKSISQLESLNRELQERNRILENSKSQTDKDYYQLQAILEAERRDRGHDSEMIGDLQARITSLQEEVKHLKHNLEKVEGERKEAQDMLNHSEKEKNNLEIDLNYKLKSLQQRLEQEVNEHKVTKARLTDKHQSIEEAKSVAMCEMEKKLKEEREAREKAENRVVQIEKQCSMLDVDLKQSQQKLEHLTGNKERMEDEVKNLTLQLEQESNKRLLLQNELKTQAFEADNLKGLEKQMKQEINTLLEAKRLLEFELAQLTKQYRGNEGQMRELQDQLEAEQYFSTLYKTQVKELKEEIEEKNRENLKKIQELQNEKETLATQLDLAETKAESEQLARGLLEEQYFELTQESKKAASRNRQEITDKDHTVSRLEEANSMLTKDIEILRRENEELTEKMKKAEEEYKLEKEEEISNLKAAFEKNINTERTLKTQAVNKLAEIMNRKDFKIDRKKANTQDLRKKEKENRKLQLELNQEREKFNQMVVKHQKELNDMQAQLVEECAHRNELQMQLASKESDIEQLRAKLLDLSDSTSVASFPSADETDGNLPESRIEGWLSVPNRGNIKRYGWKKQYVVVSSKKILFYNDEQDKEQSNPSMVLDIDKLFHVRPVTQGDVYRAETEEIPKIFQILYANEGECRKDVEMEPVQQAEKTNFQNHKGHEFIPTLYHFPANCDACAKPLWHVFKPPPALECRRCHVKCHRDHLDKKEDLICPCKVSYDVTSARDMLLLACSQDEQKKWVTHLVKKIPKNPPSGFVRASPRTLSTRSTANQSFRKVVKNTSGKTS
Experimental: as §1, §2, §3

Chain of ROCK2 (O75116 whole entry, looked up): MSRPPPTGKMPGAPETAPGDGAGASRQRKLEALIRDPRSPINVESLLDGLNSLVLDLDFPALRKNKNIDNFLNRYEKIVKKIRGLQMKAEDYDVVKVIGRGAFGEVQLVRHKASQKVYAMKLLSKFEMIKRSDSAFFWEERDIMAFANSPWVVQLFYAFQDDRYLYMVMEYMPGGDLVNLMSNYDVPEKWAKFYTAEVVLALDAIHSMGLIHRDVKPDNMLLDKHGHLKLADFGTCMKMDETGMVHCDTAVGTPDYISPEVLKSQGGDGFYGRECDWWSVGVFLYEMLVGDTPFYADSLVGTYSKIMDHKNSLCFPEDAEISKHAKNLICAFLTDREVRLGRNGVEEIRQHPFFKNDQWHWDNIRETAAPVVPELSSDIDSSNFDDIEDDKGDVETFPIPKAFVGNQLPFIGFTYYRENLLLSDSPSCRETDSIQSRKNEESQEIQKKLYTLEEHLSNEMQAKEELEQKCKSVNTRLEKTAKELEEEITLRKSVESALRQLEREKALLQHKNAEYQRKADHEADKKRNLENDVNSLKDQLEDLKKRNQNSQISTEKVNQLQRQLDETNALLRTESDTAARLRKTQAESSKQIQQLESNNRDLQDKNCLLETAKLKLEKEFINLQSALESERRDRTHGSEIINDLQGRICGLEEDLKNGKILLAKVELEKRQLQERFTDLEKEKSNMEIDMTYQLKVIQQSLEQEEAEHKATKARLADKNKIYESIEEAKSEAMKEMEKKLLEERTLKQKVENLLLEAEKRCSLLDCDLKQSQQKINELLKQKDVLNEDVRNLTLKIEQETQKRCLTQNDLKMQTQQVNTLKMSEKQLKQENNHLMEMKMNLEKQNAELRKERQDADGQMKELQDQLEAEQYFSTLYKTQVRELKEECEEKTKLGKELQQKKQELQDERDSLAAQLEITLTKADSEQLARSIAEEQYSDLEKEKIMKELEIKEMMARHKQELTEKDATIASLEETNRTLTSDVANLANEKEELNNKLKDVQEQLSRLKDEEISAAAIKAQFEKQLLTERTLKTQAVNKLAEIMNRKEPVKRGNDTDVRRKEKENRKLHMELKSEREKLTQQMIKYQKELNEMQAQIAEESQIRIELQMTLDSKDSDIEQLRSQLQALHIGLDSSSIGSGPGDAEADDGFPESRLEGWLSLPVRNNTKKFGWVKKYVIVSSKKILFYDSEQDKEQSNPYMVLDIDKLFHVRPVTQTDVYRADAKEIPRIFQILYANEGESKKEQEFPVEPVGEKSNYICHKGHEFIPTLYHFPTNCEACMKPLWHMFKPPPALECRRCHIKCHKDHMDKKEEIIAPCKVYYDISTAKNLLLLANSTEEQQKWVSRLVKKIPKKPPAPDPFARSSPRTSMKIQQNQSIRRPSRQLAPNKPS

Structure (SMILES)	pIC50 (ROCK2)	pIC50 (ROCK1)
CC(OC(=O)N1Cc2ccc(-c3ncc(F)c(Nc4ccc5c(c4)CCNC5=O)n3)cc2C1)C(F)(F)F (centres unmarked) [C66, 1,1,1-trifluoro-propan-2-yl 5-(5-fluoro-4-((1-oxo-1,2,3,4-tetrahydro-isoquinolin-6-yl)amino)pyrimidin-2-yl) isoindolin-2-carboxylate]	7.09	< 5.00
CC(CC(=O)N1Cc2ccc(-c3ncc(F)c(Nc4ccc5c(c4)CCNC5=O)n3)cc2C1)C(F)(F)F (centres unmarked) [C67, 6-((5-fluoro-2-(2-(4,4,4-trifluoro-3-methyl-butanoyl)isoindolin-5-yl)pyrimidin-4-yl)amino)-3,4-dihydro-isoquinolin-1(2H)-one]	7.00	< 5.00
O=C(CCC(F)(F)F)N1CCc2sc(-c3ncc(F)c(Nc4ccc5c(=O)[nH]ccc5c4)n3)cc2C1 [C68, 6-((5-fluoro-2-(5-(4,4,4-trifluorobutanoyl)-4,5,6,7-tetrahydrothieno[3,2-c]pyridin-2-yl)pyrimidin-4-yl)amino)isoquinolin-1(2H)-one]	8.05	< 5.00
O=C1NCCc2cc(Nc3nc(-c4cc5c(s4)CCN(C(=O)CCC(F)(F)F)C5)ncc3F)ccc21 [C69, 6-((5-fluoro-2-(5-(4,4,4-trifluorobutanoyl)-4,5,6,7-tetrahydrothieno[3,2-c]pyridin-2-yl)pyrimidin-4-yl)amino)-3,4-dihydroisoquinolin-1(2H)-one]	7.35	< 5.00
O=C(CCC(F)(F)F)N1CCc2cc(-c3ncc(F)c(Nc4ccc5c(=O)[nH]ccc5c4)n3)ccc21 [C70, 6-((5-fluoro-2-(1-(4,4,4-trifluoro-butanoyl)indolin-5-yl)pyrimidin-4-yl)amino) isoquinolin-1(2H)-one]	7.82	< 5.00
CC(CC(=O)N1CCc2cc(-c3ncc(F)c(Nc4ccc5c(=O)[nH]ccc5c4)n3)ccc21)C(F)(F)F (centres unmarked) [C71, 6-((5-fluoro-2-(1-(4,4,4-trifluoro-3-methyl-butanoyl)indolin-5-yl)pyrimidin-4-yl)amino) isoquinolin-1(2H)-one]	7.60	< 5.00
CC(OC(=O)N1CCc2cc(-c3ncc(F)c(Nc4ccc5c(=O)[nH]ccc5c4)n3)ccc21)C(F)(F)F (centres unmarked) [C73, 1,1,1-trifluoro-propan-2-yl 5-(5-fluoro-4-((1-oxo-1,2-dihydro-isoquinolin-6-yl)amino)pyrimidin-2-yl) indoline-1-carboxylate]	7.11	< 5.00
CC(CC(=O)N1CCc2cc(-c3ncc(F)c(Nc4ccc5c(c4)CCNC5=O)n3)ccc21)C(F)(F)F (centres unmarked) [C74, 6-((5-fluoro-2-(1-(4,4,4-trifluoro-3-methyl-butanoyl)indolin-5-yl)pyrimidin-4-yl)amino)-3,4-dihydro-isoquinolin-1(2H)-one]	7.27	< 5.00
CC(C)(C)OC(=O)N1Cc2ccc(-c3ncc(F)c(Nc4ccc5c(c4)CCNC5=O)n3)cc2C1 [C76, tert-butyl 5-(5-fluoro-4-((1-oxo-1,2,3,4-tetrahydro-isoquinolin-6-yl)amino)pyrimidin-2-yl) isoindoline-2-carboxylate]	7.31	< 5.00
CN(CC(F)(F)F)C(=O)N1Cc2ccc(-c3ncc(F)c(Nc4ccc5c(c4)CCNC5=O)n3)cc2C1 [C78, 5-(5-fluoro-4-((1-oxo-1,2,3,4-tetrahydro-isoquinolin-6-yl)amino)pyrimidin-2-yl)-N-methyl-N-(2,2,2-trifluoro-ethyl) isoindoline-2-carboxylate]	7.40	< 5.00
O=C(N1Cc2ccc(-c3ncc(F)c(Nc4ccc5c(=O)[nH]ccc5c4)n3)cc2C1)N1CC(F)(F)C1 [C79, 6-((2-(2-(3,3-difluoro-azetidine-1-carbonyl)isoindolin-5-yl)-5-fluoro-pyrimidin-4-yl)amino) isoquinolin-1(2H)-one]	7.34	< 5.00
O=C1NCCc2cc(Nc3nc(-c4ccc5c(c4)CN(C(=O)N4CC(F)(F)C4)C5)ncc3F)ccc21 [C81, 6-((2-(2-(3,3-difluoro-azetidine-1-carbonyl)isoindolin-5-yl)-5-fluoro-pyrimidin-4-yl)amino)-3,4-dihydro-isoquinolin-1(2H)-one]	6.89	< 5.00
CC(C)(CC(=O)N1Cc2ccc(-c3ncc(F)c(Nc4ccc5c(c4)CCNC5=O)n3)cc2C1)C(F)(F)F [C82, 6-((5-fluoro-2-(2-(4,4,4-trifluoro-3,3-dimethyl-butanoyl)isoindolin-5-yl)pyrimidin-4-yl)amino)-3,4-dihydro-isoquinolin-1(2H)-one]	6.89	< 5.00

From patent US12398118B2, “Rho-associated protein kinase inhibitor, pharmaceutical composition comprising same, and use thereof” (BEIJING TIDE PHARMACEUTICAL CO., LTD., priority 2018, dated 2025)
